Measured values from patent publication US9474790B2, “Stable, protracted GLP-1/glucagon receptor co-agonists for medical use” (Novo Nordisk A/S, priority 2013, dated 2016).
Numbered stars: 1 amine (or outer) side, 2 acyl side, 3 side chain; on linkers, the order of the positions; unused ones are H or OH. Bridge positions count the residues as written; N and C are the ends. Square brackets hold non-standard residues; d marks the D form. Side chains are listed from the residue outwards. Peptide text beside a SMILES is read from it. I, II: the chains in the order shown. * marks the point of attachment. C18 diacid = O=C(O)CCCCCCCCCCCCCCCCC(=O)*; γGlu = O=C(O)[C@H](CCC(=O)[*:2])N[*:1]; Ac4c = NC1(C(=O)O)CCC1; AEEA = NCCOCCOCC(=O)O; Aib = CC(C)(N)C(=O)O

Legend:
human GLP-1 receptor = target: T1, human GLP-1 receptor (Homo sapiens, UniProt P43220); experiment: GLP-1 receptor potency, CRE luciferase reporter gene assay in BHK cells; type: cell-based; settings: BHK cells expressing human GLP-1 receptor, read-out: EC50 GLP-1R
T1 construct: expressed in transfected cells; host or cells: BHK cells (parent BHKTS13), clone FCW467-12A/KZ10-1, with CRE luciferase
T1 sequence (P43220 24-463): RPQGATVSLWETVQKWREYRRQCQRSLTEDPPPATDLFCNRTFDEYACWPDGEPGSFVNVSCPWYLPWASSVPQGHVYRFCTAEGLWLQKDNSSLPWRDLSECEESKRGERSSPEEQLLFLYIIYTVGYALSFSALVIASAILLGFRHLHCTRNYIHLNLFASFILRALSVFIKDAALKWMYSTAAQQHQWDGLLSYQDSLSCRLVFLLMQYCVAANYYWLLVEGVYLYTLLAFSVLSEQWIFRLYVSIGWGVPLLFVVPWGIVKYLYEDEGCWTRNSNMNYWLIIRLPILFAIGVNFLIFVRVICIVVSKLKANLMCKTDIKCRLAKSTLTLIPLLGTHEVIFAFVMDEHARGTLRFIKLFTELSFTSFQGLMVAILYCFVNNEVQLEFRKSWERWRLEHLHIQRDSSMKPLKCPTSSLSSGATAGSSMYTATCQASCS
Method in brief: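 Potency as cAMP-driven firefly luciferase signal after 3 h, 37° C exposure to 10-fold dilutions (final 1×10EE-13–1×10EE-6 M). Stable hGLP-1R/CRE-luc BHK clone, 5×10EE3 cells/well, medium containing 2% ovalbumin and 0.2% Pluronic F-68; EC50 (pM) from variable-slope non-linear regression.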

[1] = Thioflavin T (ThT) fibrillation assay for physical stability; type: physicochemical; settings: 250 μM in 10 mM HEPES buffer, pH 7.5, 37° C., shaking 960 rpm
Method in brief: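 Fibrillation was followed by ThT (1 μM) fluorescence every 20 min, 444/485 nm, for 250 μM peptide in 10 mM HEPES pH 7.5 shaken at 960 rpm, 37° C. Lag time (t0−2τ) and apparent rate constant (1/τ) come from a sigmoidal fit. Recovery is % of initial concentration remaining soluble after centrifugation and filtration (RP-HPLC).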

EC50 (human GLP-1 receptor) | THT assay Lag time (Ex. 76) [1] | Structure (SMILES)
6 pM | 45 h | CC(C)C[C@H](NC(=O)[C@H](Cc1ccc(O)cc1)NC(=O)[C@H](CCCCN)NC(=O)[C@H](CO)NC(=O)[C@H](CC(C)C)NC(=O)[C@H](CC(=O)O)NC(=O)[C@H](CO)NC(=O)[C@@H](NC(=O)[C@H](Cc1ccccc1)NC(=O)[C@@H](NC(=O)CNC(=O)[C@H](CCC(N)=O)NC(=O)C(C)(C)NC(=O)[C@@H](N)Cc1c[nH]cn1)[C@@H](C)O)[C@@H](C)O)C(=O)N[C@@H](CCC(=O)O)C(=O)N[C@@H](CO)C(=O)N[C@@H](CCCNC(=N)N)C(=O)N[C@@H](CCCNC(=N)N)C(=O)N[C@@H](C)C(=O)N[C@@H](CCCNC(=N)N)C(=O)N[C@@H](CCC(=O)O)C(=O)N[C@@H](Cc1ccccc1)C(=O)N[C@H](C(=O)N[C@@H](CCC(N)=O)C(=O)N[C@@H](Cc1c[nH]c2ccccc12)C(=O)N[C@@H](CC(C)C)C(=O)N[C@@H](CC(C)C)C(=O)N[C@@H](CCCCNC(=O)CC[C@H](NC(=O)CC[C@H](NC(=O)COCCOCCNC(=O)COCCOCCNC(=O)CC[C@H](NC(=O)CC[C@H](NC(=O)CCCCCCCCCCCCCCCCC(=O)O)C(=O)O)C(=O)O)C(=O)O)C(=O)O)C(=O)N[C@H](C(N)=O)[C@@H](C)O)C(C)C [Example 60, N^ε28-[(4S)-4-carboxy-4-[[(4S)-4-carboxy-4-[[2-[2-[2-[[2-[2-[2-[[(4S)-4-carboxy-4-[[(4S)-4-carboxy-4-(17-carboxyheptadecanoylamino)butanoyl]amino]butanoyl]amino]ethoxy]ethoxy]acetyl]amino]ethoxy]ethoxy]acetyl]amino]butanoyl]amino]butanoyl]-[Aib2,Leu10,Glu15,Arg20,Glu21,Leu27,Lys28]-Glucagon amide] (H-H[Aib]QGTFTSDLSKYLESRRAREFVQWLLK([γGlu-γGlu-AEEA-AEEA-γGlu-γGlu-C18 diacid])T-NH2; N-terminus assumed)
4 pM | 45 h | CC(C)C[C@H](NC(=O)[C@H](Cc1ccc(O)cc1)NC(=O)[C@H](CCCCN)NC(=O)[C@H](CO)NC(=O)[C@H](CC(C)C)NC(=O)[C@H](CC(=O)O)NC(=O)[C@H](CO)NC(=O)[C@@H](NC(=O)[C@H](Cc1ccccc1)NC(=O)[C@@H](NC(=O)CNC(=O)[C@H](CCC(N)=O)NC(=O)C(C)(C)NC(=O)[C@@H](N)Cc1c[nH]cn1)[C@@H](C)O)[C@@H](C)O)C(=O)N[C@@H](CCC(=O)O)C(=O)N[C@@H](CO)C(=O)N[C@@H](CCCNC(=N)N)C(=O)N[C@@H](CCCNC(=N)N)C(=O)N[C@@H](C)C(=O)N[C@@H](CCCNC(=N)N)C(=O)N[C@@H](CCC(=O)O)C(=O)N[C@@H](Cc1ccccc1)C(=O)N[C@H](C(=O)N[C@@H](CCC(N)=O)C(=O)N[C@@H](Cc1c[nH]c2ccccc12)C(=O)N[C@@H](CC(C)C)C(=O)N[C@@H](CC(C)C)C(=O)N[C@@H](CCCCNC(=O)CC[C@H](NC(=O)CC[C@H](NC(=O)[C@H](CO)NC(=O)[C@H](CCC(=O)O)NC(=O)[C@H](CO)NC(=O)CC[C@H](NC(=O)CC[C@H](NC(=O)CCCCCCCCCCCCCCCCC(=O)O)C(=O)O)C(=O)O)C(=O)O)C(=O)O)C(=O)N[C@H](C(N)=O)[C@@H](C)O)C(C)C [Example 67, N^ε28-[(4S)-4-carboxy-4-[[(4S)-4-carboxy-4-[[(2S)-2-[[(2S)-4-carboxy-2-[[(2S)-2-[[(4S)-4-carboxy-4-[[(4S)-4-carboxy-4-(17-carboxyheptadecanoylamino)butanoyl]amino]butanoyl]amino]-3-hydroxypropanoyl]amino]butanoyl]amino]-3-hydroxypropanoyl]amino]butanoyl]amino]butanoyl]-[Aib2,Leu10,Glu15,Arg20,Glu21,Leu27,Lys28]-Glucagon amide] (H-H[Aib]QGTFTSDLSKYLESRRAREFVQWLLK([γGlu-γGlu-Ser-Glu-Ser-γGlu-γGlu-C18 diacid])T-NH2; N-terminus assumed)

Second part, the molecule before the results:

Structure (SMILES) | EC50 (human GLP-1 receptor) | THT assay Lag time (Ex. 76) [1]
CC(C)C[C@H](NC(=O)[C@H](Cc1ccc(O)cc1)NC(=O)[C@H](CCCCN)NC(=O)[C@H](CO)NC(=O)[C@H](CC(C)C)NC(=O)[C@H](CC(=O)O)NC(=O)[C@H](CO)NC(=O)[C@@H](NC(=O)[C@H](Cc1ccccc1)NC(=O)[C@@H](NC(=O)CNC(=O)[C@H](CCC(N)=O)NC(=O)C(C)(C)NC(=O)[C@@H](N)Cc1c[nH]cn1)[C@@H](C)O)[C@@H](C)O)C(=O)N[C@@H](CCC(=O)O)C(=O)N[C@@H](CO)C(=O)N[C@@H](CCCCN)C(=O)N[C@@H](CCCNC(=N)N)C(=O)N[C@@H](C)C(=O)N[C@@H](CCCNC(=N)N)C(=O)N[C@@H](CCC(=O)O)C(=O)N[C@@H](Cc1ccccc1)C(=O)N[C@H](C(=O)N[C@@H](CCC(N)=O)C(=O)N[C@@H](Cc1c[nH]c2ccccc12)C(=O)N[C@@H](CC(C)C)C(=O)N[C@@H](CC(C)C)C(=O)N[C@@H](CCCCNC(=O)CC[C@H](NC(=O)CC[C@H](NC(=O)[C@H](CO)NC(=O)[C@H](CCC(=O)O)NC(=O)[C@H](CO)NC(=O)CC[C@H](NC(=O)CC[C@H](NC(=O)CCCCCCCCCCCCCCCCC(=O)O)C(=O)O)C(=O)O)C(=O)O)C(=O)O)C(=O)N[C@H](C(N)=O)[C@@H](C)O)C(C)C [Example 54, N^ε28-[(4S)-4-carboxy-4-[[(4S)-4-carboxy-4-[[(2S)-2-[[(2S)-4-carboxy-2-[[(2S)-2-[[(4S)-4-carboxy-4-[[(4S)-4-carboxy-4-(17-carboxyheptadecanoylamino)butanoyl]amino]butanoyl]amino]-3-hydroxypropanoyl]amino]butanoyl]amino]-3-hydroxypropanoyl]amino]butanoyl]amino]butanoyl]-[Aib2,Leu10,Glu15,Lys17,Arg20,Glu21,Leu27,Lys28]-Glucagon amide] (H-H[Aib]QGTFTSDLSKYLESKRAREFVQWLLK([γGlu-γGlu-Ser-Glu-Ser-γGlu-γGlu-C18 diacid])T-NH2; N-terminus assumed) | 2.7 pM | 45 h
CC(C)C[C@H](NC(=O)[C@H](Cc1ccc(O)cc1)NC(=O)[C@H](CCCNC(=N)N)NC(=O)[C@H](CO)NC(=O)[C@H](CC(C)C)NC(=O)[C@H](CC(=O)O)NC(=O)[C@H](CO)NC(=O)[C@@H](NC(=O)[C@H](Cc1ccccc1)NC(=O)[C@@H](NC(=O)CNC(=O)[C@H](CCC(N)=O)NC(=O)C1(NC(=O)[C@@H](N)Cc2c[nH]cn2)CCC1)[C@@H](C)O)[C@@H](C)O)C(=O)N[C@@H](CCC(=O)O)C(=O)N[C@@H](CO)C(=O)N[C@@H](CCCNC(=N)N)C(=O)N[C@@H](CCCNC(=N)N)C(=O)N[C@@H](C)C(=O)N[C@@H](CCCNC(=N)N)C(=O)N[C@@H](CCC(=O)O)C(=O)N[C@@H](Cc1ccccc1)C(=O)N[C@H](C(=O)N[C@@H](CCC(N)=O)C(=O)N[C@@H](Cc1c[nH]c2ccccc12)C(=O)N[C@@H](CC(C)C)C(=O)N[C@@H](CC(C)C)C(=O)N[C@@H](CCCCNC(=O)CC[C@H](NC(=O)CC[C@H](NC(=O)COCCOCCNC(=O)COCCOCCNC(=O)CC[C@H](NC(=O)CC[C@H](NC(=O)CCCCCCCCCCCCCCCCC(=O)O)C(=O)O)C(=O)O)C(=O)O)C(=O)O)C(=O)N[C@H](C(N)=O)[C@@H](C)O)C(C)C [Example 59, N^ε28-[(4S)-4-carboxy-4-[[(4S)-4-carboxy-4-[[2-[2-[2-[[2-[2-[2-[[(4S)-4-carboxy-4-[[(4S)-4-carboxy-4-(17-carboxyheptadecanoylamino)butanoyl]amino]butanoyl]amino]ethoxy]ethoxy]acetyl]amino]ethoxy]ethoxy]acetyl]amino]butanoyl]amino]butanoyl]-[Acb2,Leu10,Arg12,Glu15,Arg20,Glu21,Leu27,Lys28]-Glucagon amide] (H-H[Ac4c]QGTFTSDLSRYLESRRAREFVQWLLK([γGlu-γGlu-AEEA-AEEA-γGlu-γGlu-C18 diacid])T-NH2; N-terminus assumed) | 4 pM | 12 h
CC(C)C[C@H](NC(=O)[C@H](Cc1ccc(O)cc1)NC(=O)[C@H](CCCCN)NC(=O)[C@H](CO)NC(=O)[C@H](CC(C)C)NC(=O)[C@H](CC(=O)O)NC(=O)[C@H](CO)NC(=O)[C@@H](NC(=O)[C@H](Cc1ccccc1)NC(=O)[C@@H](NC(=O)CNC(=O)[C@H](CCC(N)=O)NC(=O)C1(NC(=O)[C@@H](N)Cc2c[nH]cn2)CCC1)[C@@H](C)O)[C@@H](C)O)C(=O)N[C@@H](CCC(=O)O)C(=O)N[C@@H](CO)C(=O)N[C@@H](CCCCN)C(=O)N[C@@H](CCCNC(=N)N)C(=O)N[C@@H](C)C(=O)N[C@@H](CCCNC(=N)N)C(=O)N[C@@H](CCC(=O)O)C(=O)N[C@@H](Cc1ccccc1)C(=O)N[C@H](C(=O)N[C@@H](CCC(N)=O)C(=O)N[C@@H](Cc1c[nH]c2ccccc12)C(=O)N[C@@H](CC(C)C)C(=O)N[C@@H](CC(C)C)C(=O)N[C@@H](CCCCNC(=O)CNC(=O)[C@H](CO)NC(=O)[C@H](CCC(=O)O)NC(=O)CNC(=O)[C@H](CO)NC(=O)CC[C@H](NC(=O)CC[C@H](NC(=O)CCCCCCCCCCCCCCCCC(=O)O)C(=O)O)C(=O)O)C(=O)N[C@H](C(N)=O)[C@@H](C)O)C(C)C [Example 36, N^ε28-[2-[[(2S)-2-[[(2S)-4-carboxy-2-[[2-[[(2S)-2-[[(4S)-4-carboxy-4-[[(4S)-4-carboxy-4-(17-carboxyheptadecanoylamino)butanoyl]amino]butanoyl]amino]-3-hydroxypropanoyl]amino]acetyl]amino]butanoyl]amino]-3-hydroxypropanoyl]amino]acetyl]-[Acb2,Leu10,Glu15,Lys17, Arg20,Glu21,Leu27,Lys28]-Glucagon amide] (I: H-H[Ac4c]QGTFTSDLSKYLESKRAREFVQWLLKT-NH2 / II: {C18 diacid-γGlu-γGlu}-SGESG; amide I:28-II:C; N-terminus assumed) | 2 pM | 45 h
